Results on one molecule are retold here after US20060211676A1, “Crystalline anhydrous cefdinir and crystalline cefdinir hydrates” (priority 2004, published 2006).

Molecules are shown by their SMILES.

The data set can be described thus: Dynamic Moisture Sorption/Desorption Gravimetric (DMSG) analysis. It is filed as physicochemical. To be noted: relative humidity from 50% to 90%. The procedure: Dynamic Moisture Sorption/Desorption Gravimetric (DMSG) analysis was performed for the cefdinir lower hydrates. A vacuum moisture balance (MB 300G, VTI Corporation) was used to study the moisture sorption and desoprtion. Samples were dried at 50° C. under vacuum to constant weight. Relative humidity was increased to 90% in 10% increments. If the sample weight remained unchanged (i.e. changed by less than about 3 mg/15 min), the moisture content was recorded. The balance was calibrated before the experiment and the accuracy of the relative humidity measurement was verified with polyvinylpyrrolidone K90. […] Sharp steps, for example with relative humidity changes from 40% to 50%, occur when the crystal undergoes a phase change (i.e. a crystalline structure change). […] Increases in the relative humidity from 10% to almost 40%, results in the formation of crystalline iso-structural hydrates. The cefdinir iso-structural hydrates varied but maintained the same crystalline structure and PXRD patterns (FIG. 6). An increase in the relative humidity from 40% to 50% caused a crystalline structure change, and further increase of relative humidity from 50% to 90% caused cefdinir trihemihydrate (having a water content of about 14%) to form. […] The weight changes are expressed by percentage of water content and by the calculated molar content of water.

For the molecule `C=CC1=C(C(=O)O)N2C(=O)[C@@H](NC(=O)/C(=N\O)c3csc(N)n3)[C@H]2SC1.C=CC1=C(C(=O)O)N2C(=O)[C@@H](NC(=O)/C(=N\O)c3csc(N)n3)[C@H]2SC1.O.O.O.O.O.O.O` [cefdinir trihemihydrate, crystalline(6R-(6α,7β(Z)))-7-(((2-amino-1,3-thiazol-4-yl)(hydroxyimino)acetyl)amino)-3-ethenyl-8-oxo-5-thia-1-azabicyclo[4.2.0]oct-2-ene-2-carboxylic acid.3.5H2O], the water content entry was “about 14%”.
